Source: US12377100B2 (GILEAD SCIENCES, INC., priority 2015, dated 2025)

Legend:
MRC-5 cells = test: Cytotoxicity assay, MRC-5 cells, Cell Titer Glo, 5 days; format: cell-based, human; details: MRC-5, five days incubation, intracellular ATP; read-out: CC50 MRC5 CTG 5D
Excerpt: (§1) To assess potential off-target toxicity of certain compounds disclosed herein, the in vitro cytotoxicity of those compounds was profiled using a panel of 5 cell lines with various tissue origins. Compound cytotoxicity was examined in hepatoma-derived Huh-7 and HepG2 cells, prostate carcinoma-derived PC-3 cells, lymphoma derived MT-4 cells and a normal diploid lung cell line MRC-5. HepG2 and PC-3 cells used were adapted to grow in glucose-free galactose-containing medium. These cells have a relatively higher sensitivity to inhibitors of mitochondrial oxidative phosphorylation compared to the same cells maintained in standard glucose-containing culture medium (Marroquin et al., Toxicol. Sci. 2007; 97 (2):539-47). Cell viability was determined by measuring intracellular ATP levels following five days of continuous incubation with test compounds.
(§2) The human hepatoma Huh-7 cell line was obtained from ReBLikon GmbH (Mainz, Germany) {20879}. The MT-4 cell line (HTLV-1 transformed, human T lymphoblastoid cells) was obtained from the NIH AIDS Reagent program (Bathesda, MD). The human hepatoblastoma cell line HepG2, human prostate carcinoma cell line PC-3, and normal fetal lung derived MRC-5 cells were obtained from the American Type Culture Collection (ATCC, Manassas, VA).
(§3) Huh-7 cells were maintained in Dulbecco's Modified Eagle Medium (DMEM) supplemented with 10% fetal bovine serum (FBS, Hyclone, Logan, UT), 1% non-essential amino acids (Gibco, Carlsbad, CA). PC-3 and HepG2 cells were adapted to grow in 0.2% galactose-containing, glucose-free Dulbecco's Modified Eagle Medium (DMEM) supplemented with 10% fetal bovine serum (FBS, Hyclone, Logan, UT), 1% non-essential amino acids (Gibco, Carlsbad, CA), 1% Pyruvate (Cellgro), 1% Glutamax (Invitrogen, Carlsbad, CA). Galactose-adapted cells were maintained in the same culture medium. MRC-5 cells were maintained in Eagle's Minimum Essential Medium (EMEM) supplemented with 10% fetal bovine serum (FBS, Hyclone, Logan, UT). MT-4 cells were maintained in RPMI-1640 supplemented with 10% fetal bovine serum (FBS, Hyclone, Logan, UT). All cell culture media were also supplemented with 100 Units/mL penicillin, 100 μg/mL streptomycin (Gibco).
(§4) Using a Biotek uFlow Workstation (Biotek, Winooski, VT), 1500 HepG2, 1500 PC-3, 500 Huh7 or 1500 MRC-5 cells in 90 μL of culture media were dispensed into each well of black polystyrene tissue culture-treated 384-well plates. Plated cells were incubated for 24 hours in an incubator at 37° C., 5% CO2 and 90% humidity. Compound serial dilutions were performed in 100% DMSO in 384-well polypropylene (high recovery) plates on a Biomek FX Workstation (Beckman Coulter, Fullerton, CA). After 3-fold serial dilutions, 0.4 μL of compounds were transferred into 384-well plates containing cells using a Velocity 11 system equipped with a Bravo 384-well pipettor. The DMSO concentration in the final assay plates was 0.44% (v/v). Cells were incubated with compound(s) for five days at 37° C. Puromycin (44 μM final concentration) and DMSO (0.44%, v/v) were used as a positive and negative controls, respectively
(§5) At the end of the incubation period the cytotoxicity assay was performed as follows: Media from 384-well cell culture plates were aspirated with a Biotek EL405 plate-washer (Biotek) and cells were washed with 100 μL PBS once. Twenty microliters of Cell Titer Glo (Promega, Madison, WI) was added to each well of the plates with a Biotek uFlow liquid dispenser. Plates were incubated for 15 minutes at room temperature before luminescence was measured with a Perkin Elmer Envision Plate Reader (Perkin Elmer, Waltham, MA).
(§6) CC50 values were defined as the compound concentration that caused a 50% decrease in luminescence signal, and were calculated by non-linear regression using Pipeline Pilot software by applying a four parameter fit equation (Accelrys, San Diego, CA). Individual CC50 values are listed as μM concentrations.

TNFα = test: PBMC cytokine profiling assay, TNFα induction; format: cell-based; details: human PBMCs, 24 hours incubation
Procedure, shortened: (§7)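 Cryopreserved healthy-donor human PBMCs (100k cells/well) were exposed for 24 h at 37 °C to a 10-point half-log compound series in 0.5% final DMSO. Secreted cytokines in the conditioned medium were quantified by MSD electrochemiluminescence, with TNFα samples diluted 1:9. AC50 was fitted by non-linear regression on percent activation normalised to plate controls.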

IFNα = test: PBMC cytokine profiling assay, IFNα induction; format: cell-based; details: human PBMCs, 24 hours incubation
Procedure, shortened: as §7

IL12p40 = test: PBMC cytokine profiling assay, IL12-p40 induction; format: cell-based; details: human PBMCs, 24 hours incubation
Procedure, shortened: as §7

Huh-7 cells = test: Cytotoxicity assay, Huh-7 cells, Cell Titer Glo, 5 days; format: cell-based, human; details: Huh-7, five days incubation, intracellular ATP; read-out: CC50 HUH7 CTG 5D
Excerpt: as §1, §2, §3, §4, §5, §6

[1] = Cytotoxicity assay, galactose-adapted HepG2 cells, Cell Titer Glo, 5 days; format: cell-based; details: human, galactose-adapted HepG2, five days incubation, intracellular ATP, read-out: CC50 GALHEPG2 CTG 5D
Excerpt: as §1, §2, §3, §4, §5, §6

| SMILES | CC50 (MRC-5 cells) | AC50 (TNFα) | AC50 (IFNα) | AC50 (IL12p40) | CC50 (Huh-7 cells) | AC50 (TNFα; Homo sapiens, PBMC, 24 h) | AC50 (IFNα; Homo sapiens, PBMC, 24 h) | CC50 at 5 days [1] | AC50 (IL12p40; Homo sapiens, PBMC, 24 h) |
| --- | --- | --- | --- | --- | --- | --- | --- | --- | --- |
| CCCC[C@@](C)(Nc1nc(N)nc2cc(F)cnc12)C(C)O (single isomer, unassigned) [Example 95] | 44.4 µM | 0.15 µM | > 50 µM | 0.15 µM | – | – | – | – | – |
| CCCC[C@H](CNC(C)=O)Nc1nc(N)nc2cccnc12 [Example 51, (R)—N-(2-((2-aminopyrido[3,2-d]pyrimidin-4-yl)amino)hexyl)acetamide] | 44.4 µM | – | – | – | 44.4 µM | 0.37 µM | > 200 µM | 44.4 µM | 0.33 µM |
| C=CCC[C@](C)(CO)Nc1nc(N)nc2cccnc12 [Example 83, (R)-2-((2-aminopyrido[3,2-d]pyrimidin-4-yl)amino)-2-methylhex-5-en-1-ol] | – | – | – | – | – | 1.7 µM | 43.1 µM | – | 1.8 µM |
| C=CCC[C@](C)(CO)Nc1nc(N)nc2cc(F)cnc12 [Example 84, (R)-2-((2-amino-7-fluoropyrido[3,2-d]pyrimidin-4-yl)amino)-2-methylhex-5-en-1-ol] | – | – | – | – | – | 3 µM | > 50 µM | – | 3.9 µM |
| CCCCC(CC)(CO)Nc1nc(N)nc2cccnc12 (stereo not drawn) [Example 85, 2-((2-aminopyrido[3,2-d]pyrimidin-4-yl)amino)-2-ethylhexan-1-ol] | – | – | – | – | – | 0.86 µM | 4 µM | – | 0.8 µM |
| CCCC[C@@H](Nc1nc(N)nc2cccnc12)[C@H](C)O [Example 86] | – | 2.9 µM | 37.4 µM | 2.4 µM | – | – | – | – | – |
| CCCC[C@@H](Nc1nc(N)nc2cc(F)cnc12)[C@H](C)O [Example 87, (2S,3R)-3-((2-amino-7-fluoropyrido[3,2-d]pyrimidin-4-yl)amino)heptan-2-ol] | – | – | – | – | – | 5 µM | > 50 µM | – | 4.5 µM |
| CCCC[C@@H](Nc1nc(N)nc2cccnc12)[C@@H](O)C(F)(F)F [Example 89, (2R,3R)-3-((2-aminopyrido[3,2-d]pyrimidin-4-yl)amino)-1,1,1-trifluoroheptan-2-ol] | – | – | – | – | – | 2.2 µM | > 50 µM | – | 1.7 µM |
| CCCC[C@@H](Nc1nc(N)nc2cccnc12)C(CF)NC(C)=O (stereo partly drawn) [Example 91, N-((3R)-3-((2-aminopyrido[3,2-d]pyrimidin-4-yl)amino)-1-fluoroheptan-2-yl)acetamide] | – | – | – | – | – | 2 µM | > 50 µM | – | 1.9 µM |
| CCCC[C@](C)(CO)Nc1nc(N)nc2cc(F)cnc12 [Example 98, (R)-2-((2-amino-7-fluoropyrido[3,2-d]pyrimidin-4-yl)amino)-2-methylhexan-1-ol] | – | – | – | – | – | 0.24 µM | 134 µM | – | 0.23 µM |
| Nc1nc(N[C@@H](CO)CCCC(F)(F)F)c2ncccc2n1 [Example 99, (R)-2-((2-aminopyrido[3,2-d]pyrimidin-4-yl)amino)-6,6,6-trifluorohexan-1-ol] | – | – | – | – | – | 3.4 µM | > 50 µM | – | 3.6 µM |
| CCCC[C@H](CCO)Nc1nc(N)nc2cccnc12 [Example 100, (R)-3-((2-aminopyrido[3,2-d]pyrimidin-4-yl)amino)heptan-1-ol] | – | – | – | – | – | 3.8 µM | 4.6 µM | – | 3.5 µM |
| CCCC[C@@H](Nc1nc(N)nc2cc(F)cnc12)C(O)CF (stereo partly drawn) [Example 102, (3R)-3-((2-amino-7-fluoropyrido[3,2-d]pyrimidin-4-yl)amino)-1-fluoroheptan-2-ol] | 44.4 µM | – | – | – | 44.4 µM | 0.81 µM | > 50 µM | – | 0.76 µM |
| CCCCC(Nc1nc(N)nc2cccnc12)C(C)O (stereo not drawn) [Example 103, 3-((2-aminopyrido[3,2-d]pyrimidin-4-yl)amino)heptan-2-ol] | – | – | 10.3 µM | – | – | 3.3 µM | – | – | 2.6 µM |
| CCCCC(Nc1nc(N)nc2cccnc12)C(C)O (stereo not drawn) [Example 104, 3-((2-aminopyrido[3,2-d]pyrimidin-4-yl)amino)heptan-2-ol] | – | 2.1 µM | 4.2 µM | 1.9 µM | – | – | – | – | – |
| CCCC[C@H](CO)Nc1nc(N)nc2cc(OC)cnc12 [Example 105, (R)-2-((2-amino-7-methoxypyrido[3,2-d]pyrimidin-4-yl)amino)hexan-1-ol] | – | – | – | – | – | 3.5 µM | > 50 µM | – | 3.4 µM |
| CCCC[C@H](CO)Nc1nc(N)nc2cc(OCC)cnc12 [Example 106, (R)-2-((2-amino-7-ethoxypyrido[3,2-d]pyrimidin-4-yl)amino)hexan-1-ol] | – | – | – | – | – | 13.8 µM | > 50 µM | – | 10.2 µM |
| CCCC[C@H](CO)Nc1nc(N)nc2cc(C)cnc12 [Example 107, (R)-2-((2-amino-7-methylpyrido[3,2-d]pyrimidin-4-yl)amino)hexan-1-ol] | – | – | – | – | – | 2.8 µM | > 50 µM | – | 1.8 µM |
| C=CC[C@H](CO)Nc1nc(N)nc2cccnc12 [Example 108, (R)-2-((2-aminopyrido[3,2-d]pyrimidin-4-yl)amino)pent-4-en-1-ol] | – | – | – | – | – | 38.7 µM | > 50 µM | – | 22 µM |
| CC(C)(O)CC[C@H](CO)Nc1nc(N)nc2cccnc12 [Example 110] | – | – | – | – | – | 32.6 µM | 32.6 µM | – | 32.6 µM |
| CCCCC[C@](C)(CO)Nc1nc(N)nc2cc(F)cnc12 [Example 111, (R)-2-((2-amino-7-fluoropyrido[3,2-d]pyrimidin-4-yl)amino)-2-methylheptan-1-ol] | – | – | 19.8 µM | – | – | 0.61 µM | – | – | 0.47 µM |
| CCCCC[C@](C)(CO)Nc1nc(N)nc2cc(F)cnc12 [Example 112, (R)-2-((2-amino-7-fluoropyrido[3,2-d]pyrimidin-4-yl)amino)-2-methylheptan-1-ol] | – | 0.36 µM | > 50 µM | 0.33 µM | – | – | – | – | – |
| COc1cnc2c(NC(C)(C)C)nc(N)nc2c1 [Example 113, N^4-(tert-butyl)-7-methoxypyrido[3,2-d]pyrimidine-2,4-diamine] | – | – | – | – | – | 12.5 µM | > 50 µM | – | 13.6 µM |
| CCCC[C@](C)(CO)Nc1nc(N)nc2cc(N)cnc12 [Example 115, (R)-2-((2,7-diaminopyrido[3,2-d]pyrimidin-4-yl)amino)-2-methylhexan-1-ol] | – | – | – | – | – | 0.024 µM | 9 µM | – | 0.027 µM |
| CCCCC[C@](C)(CNC(C)=O)Nc1nc(N)nc2cccnc12 [Example 116, (R)—N-(2-((2-aminopyrido[3,2-d]pyrimidin-4-yl)amino)-2-methylheptyl)acetamide] | – | – | – | – | – | 0.036 µM | > 50 µM | – | 0.11 µM |
| CCCCC[C@](C)(CNC(C)=O)Nc1nc(N)nc2cc(Cl)cnc12 [Example 117, (R)—N-(2-((2-amino-7-chloropyrido[3,2-d]pyrimidin-4-yl)amino)-2-methylheptyl)acetamide] | – | – | – | – | – | 0.37 µM | > 50 µM | – | 0.33 µM |
| CCCC[C@](C)(CN[C@@H](C)C(F)(F)F)Nc1nc(N)nc2cccnc12 [Example 118, N^4—((R)-2-methyl-1-(((S)-1,1,1-trifluoropropan-2-yl)amino)hexan-2-yl)pyrido[3,2-d]pyrimidine-2,4-diamine] | – | – | – | – | – | 9.3 µM | > 50 µM | – | 9.1 µM |
